The results in this text go back to ChEMBL document CHEMBL3880411, “Multikinase inhibitors for use in the treatment of cancer” (2009).

A word on the IC50: it is the concentration needed to halve the response being measured. A high value points to weaker potency in that assay.

Assay [1] deals with Dual specificity mitogen-activated protein kinase kinase 1 (Homo sapiens, UniProt Q02750). The experiment in a line: Inhibition of MEK1 (unknown origin) using ERK2 as substrate after 40 mins by ELISA.
Sequence of Dual specificity mitogen-activated protein kinase kinase 1 (Q02750 whole entry): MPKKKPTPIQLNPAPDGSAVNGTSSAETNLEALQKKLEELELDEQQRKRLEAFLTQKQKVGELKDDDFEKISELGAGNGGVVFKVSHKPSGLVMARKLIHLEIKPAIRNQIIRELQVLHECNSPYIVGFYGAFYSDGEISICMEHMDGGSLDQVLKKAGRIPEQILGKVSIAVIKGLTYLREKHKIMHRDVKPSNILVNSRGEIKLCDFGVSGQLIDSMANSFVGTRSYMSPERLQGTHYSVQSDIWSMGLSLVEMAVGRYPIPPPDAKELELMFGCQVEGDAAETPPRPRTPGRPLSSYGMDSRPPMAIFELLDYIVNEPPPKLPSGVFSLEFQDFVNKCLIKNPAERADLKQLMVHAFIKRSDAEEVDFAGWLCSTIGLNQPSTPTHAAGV
The target in assay [2] is Nuclear factor NF-kappa-B complex (Homo sapiens) (UniProt Q00653+P19838+Q04206). The experiment in a line: Inhibition of NFkappaB (unknown origin). It counts as protein-complex assay.
Sequence of Nuclear factor NF-kappa-B complex (Homo sapiens) (P19838 whole entry, looked up): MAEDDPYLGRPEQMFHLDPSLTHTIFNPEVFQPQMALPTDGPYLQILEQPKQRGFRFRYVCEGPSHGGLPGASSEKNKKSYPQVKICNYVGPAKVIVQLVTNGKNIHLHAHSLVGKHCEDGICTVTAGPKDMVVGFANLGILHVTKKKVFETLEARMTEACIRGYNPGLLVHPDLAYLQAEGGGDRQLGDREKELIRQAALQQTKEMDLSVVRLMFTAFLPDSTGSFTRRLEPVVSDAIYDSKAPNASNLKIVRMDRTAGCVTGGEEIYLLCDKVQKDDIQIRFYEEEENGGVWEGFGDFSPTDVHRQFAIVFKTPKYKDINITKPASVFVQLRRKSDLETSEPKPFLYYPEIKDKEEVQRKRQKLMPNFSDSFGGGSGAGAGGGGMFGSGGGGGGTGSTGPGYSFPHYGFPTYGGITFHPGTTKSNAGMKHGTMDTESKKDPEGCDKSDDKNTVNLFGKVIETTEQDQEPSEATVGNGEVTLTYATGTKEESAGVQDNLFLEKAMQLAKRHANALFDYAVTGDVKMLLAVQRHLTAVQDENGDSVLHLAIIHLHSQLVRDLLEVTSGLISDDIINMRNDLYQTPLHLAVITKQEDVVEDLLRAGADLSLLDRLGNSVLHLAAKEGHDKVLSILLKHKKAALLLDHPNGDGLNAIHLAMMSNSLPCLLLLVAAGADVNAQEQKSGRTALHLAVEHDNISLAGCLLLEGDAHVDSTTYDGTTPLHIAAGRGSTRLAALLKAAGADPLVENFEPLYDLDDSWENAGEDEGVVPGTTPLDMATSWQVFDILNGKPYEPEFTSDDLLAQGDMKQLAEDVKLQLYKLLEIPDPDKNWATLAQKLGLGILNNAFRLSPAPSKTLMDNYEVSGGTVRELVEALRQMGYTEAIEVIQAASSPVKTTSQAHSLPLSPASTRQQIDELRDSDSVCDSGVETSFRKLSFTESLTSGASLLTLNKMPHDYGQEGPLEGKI
Sequence of Nuclear factor NF-kappa-B complex (Homo sapiens) (Q00653 whole entry, looked up): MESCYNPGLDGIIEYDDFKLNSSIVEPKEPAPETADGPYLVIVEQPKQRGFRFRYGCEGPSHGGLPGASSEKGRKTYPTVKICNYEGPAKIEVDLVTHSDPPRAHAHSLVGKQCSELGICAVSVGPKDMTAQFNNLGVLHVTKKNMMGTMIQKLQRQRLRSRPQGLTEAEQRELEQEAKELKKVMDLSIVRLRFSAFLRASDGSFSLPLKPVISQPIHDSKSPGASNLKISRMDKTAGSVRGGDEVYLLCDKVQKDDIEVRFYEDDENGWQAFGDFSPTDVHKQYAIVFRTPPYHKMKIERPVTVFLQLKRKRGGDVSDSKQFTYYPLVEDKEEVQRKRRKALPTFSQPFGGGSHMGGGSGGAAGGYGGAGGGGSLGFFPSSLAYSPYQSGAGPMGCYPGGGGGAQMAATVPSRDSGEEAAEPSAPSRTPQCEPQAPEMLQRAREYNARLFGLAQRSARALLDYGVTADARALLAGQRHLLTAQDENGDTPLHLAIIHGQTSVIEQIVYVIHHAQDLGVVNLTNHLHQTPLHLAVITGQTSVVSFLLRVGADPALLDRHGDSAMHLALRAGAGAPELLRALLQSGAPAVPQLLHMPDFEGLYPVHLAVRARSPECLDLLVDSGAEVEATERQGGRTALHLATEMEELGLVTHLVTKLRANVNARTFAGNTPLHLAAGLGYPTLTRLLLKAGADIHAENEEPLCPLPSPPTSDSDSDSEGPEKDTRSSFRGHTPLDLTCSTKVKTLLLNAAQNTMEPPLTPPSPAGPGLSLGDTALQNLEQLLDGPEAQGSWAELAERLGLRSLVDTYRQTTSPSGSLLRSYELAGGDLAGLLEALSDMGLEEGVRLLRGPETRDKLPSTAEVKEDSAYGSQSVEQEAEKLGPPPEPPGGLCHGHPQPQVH
Sequence of Nuclear factor NF-kappa-B complex (Homo sapiens) (Q04206 whole entry, looked up): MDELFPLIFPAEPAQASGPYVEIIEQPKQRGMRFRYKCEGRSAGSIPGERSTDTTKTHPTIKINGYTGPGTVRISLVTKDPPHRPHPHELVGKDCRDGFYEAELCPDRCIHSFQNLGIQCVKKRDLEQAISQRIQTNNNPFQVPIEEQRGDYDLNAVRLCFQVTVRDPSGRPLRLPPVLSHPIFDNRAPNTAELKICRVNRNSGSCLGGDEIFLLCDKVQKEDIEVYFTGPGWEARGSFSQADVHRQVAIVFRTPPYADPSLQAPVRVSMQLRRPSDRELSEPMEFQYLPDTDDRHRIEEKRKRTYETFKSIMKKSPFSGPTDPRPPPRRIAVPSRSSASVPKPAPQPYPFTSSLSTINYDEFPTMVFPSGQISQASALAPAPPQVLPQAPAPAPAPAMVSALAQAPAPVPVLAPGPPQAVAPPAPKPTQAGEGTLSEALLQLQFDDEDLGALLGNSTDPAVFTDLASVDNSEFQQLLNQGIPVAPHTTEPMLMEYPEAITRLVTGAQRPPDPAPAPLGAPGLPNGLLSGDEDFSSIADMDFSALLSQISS

Active and inactive are the calls of the source. The calls are words filed in the database; no cut-off is given here. A value given as a limit tells only on which side of the number the result lay.

`CCNc1cc(O)c2c(c1)/C=C/C[C@@H]1OC(=O)O[C@@H]1C(=O)/C=C\[C@@H](C)[C@H](C)OC2=O` returned an IC50 in assay [1] of 0.145 µM. In assay [2], the inhibition entry was “Active”.
In the same order, the values of `CNC(=O)CNc1cc(O)c2c(c1)/C=C/C[C@H](O)[C@H](O)C(=O)/C=C\[C@@H](C)[C@H](C)OC2=O` are 0.657 µM and “Active”.
The corresponding values for `C[C@@H]1/C=C\C(=O)[C@@H](O)[C@@H](O)C/C=C/c2cc(NOC[C@H](O)CO)cc(O)c2C(=O)O[C@H]1C` are 0.187 µM and “Active”.
The corresponding values for `C[C@@H]1/C=C\C(=O)[C@@H](O)[C@@H](O)C/C=C/c2cc(N3CCOC3=O)cc(O)c2C(=O)O[C@H]1C` are 0.187 µM and “Active”.
The molecule `C[C@@H]1/C=C\C(=O)[C@@H](O)[C@@H](O)C/C=C/c2cc(NCCn3ccnc3)cc(O)c2C(=O)O[C@H]1C` had an IC50 in assay [1] of 0.12 µM. Further, the inhibition entry in assay [2] was “Active”.
The corresponding values for `C[C@@H]1/C=C\C(=O)[C@@H](O)[C@@H](O)C/C=C/c2cc(NCC3CCNCC3)cc(O)c2C(=O)O[C@H]1C` are 0.356 µM and “Active”.
`C[C@@H]1/C=C\C(=O)[C@@H](O)[C@@H](O)C/C=C/c2cc(NCC(O)CO)cc(O)c2C(=O)O[C@H]1C` (some centres undefined) displayed an IC50 in assay [1] of 0.056 to 0.101 µM. Also, the inhibition result in assay [2] was “Active”.
Turning to `C[C@@H]1/C=C\C(=O)[C@@H](O)[C@@H](O)C/C=C/c2cc(N(CCNCC(O)CO)C(=O)OC(C)(C)C)cc(O)c2C(=O)O[C@H]1C` (some centres undefined), the inhibition entry in assay [2] is “Active”.
As for `C[C@@H]1/C=C\C(=O)[C@@H](O)[C@@H](O)C/C=C/c2cc(NCCNCC(O)CO)cc(O)c2C(=O)O[C@H]1C` (some centres undefined), the half-maximal inhibitory concentration (IC50) in assay [1] is 0.658 µM. For the same molecule, the inhibition entry in assay [2] is “Active”.
In the same order, the values of `C[C@@H]1/C=C\C(=O)[C@@H](O)[C@@H](O)C/C=C/c2cc(NCCO)cc(O)c2C(=O)O[C@H]1C` are 0.091 to 0.198 µM and “Active”.
The corresponding values for `CCNc1cc(O)c2c(c1)/C=C/C[C@H](OC(=O)C(F)(F)F)[C@@H](O)C(=O)/C=C\[C@@H](C)[C@H](C)OC2=O` are 0.079 µM and “Active”.
The corresponding values for `C[C@@H]1/C=C\C(=O)[C@@H](O)[C@@H](O)C/C=C/c2cc(NCCN3CCCC3)cc(O)c2C(=O)O[C@H]1C` are 0.356 to 0.64 µM and “Active”.
Turning to `C[C@@H]1/C=C\C(=O)[C@@H](O)[C@@H](O)C/C=C/c2cc(NCCNCCO)cc(O)c2C(=O)O[C@H]1C`, in assay [1], 0.846 µM corresponded to half-maximal inhibition (IC50). Moreover, the inhibition entry in assay [2] is “Active”.
Consider `C[C@@H]1/C=C\C(=O)[C@@H](O)[C@@H](O)C/C=C/c2cc(NOCC(=O)O)cc(O)c2C(=O)O[C@H]1C`, for which the IC50 in assay [1] is over 0.33 µM. Besides, the inhibition entry in assay [2] is “Active”.
In the same order, the values of `C[C@@H]1/C=C\C(=O)[C@@H](O)[C@@H](O)C/C=C/c2cc(CCCn3ccnc3)cc(O)c2C(=O)O[C@H]1C` are 0.0095 to 0.037 µM and “Active”.
On to `CNc1cc(O)c2c(c1)/C=C/C[C@H](O)[C@@H](O)C(=O)/C=C\[C@@H](C)[C@H](C)OC2=O`, for which the inhibition result in assay [2] was “Active”.
As to `C[C@@H]1/C=C\C(=O)[C@@H](O)[C@@H](O)C/C=C/c2cc(NCCOP(=O)(O)O)cc(O)c2C(=O)O[C@H]1C`, the IC50 in assay [1] was over 0.33 µM. Also, the inhibition entry in assay [2] was “Active”.
In the same order, the values of `COCCNc1cc(O)c2c(c1)/C=C/C[C@H](O)[C@H](O)C(=O)/C=C\[C@@H](C)[C@H](C)OC2=O` are 0.172 µM and “Active”.
In the case of `CCNc1cc(O)c2c(c1)/C=C/C[C@H](O)[C@@H](O)C(=O)/C=C/[C@@H](C)[C@H](C)OC2=O`, in assay [2], the inhibition result is “Active”.
Regarding `C[C@@H]1/C=C\C(=O)[C@@H](O)[C@@H](O)C/C=C/c2cc(NC3CC3)cc(O)c2C(=O)O[C@H]1C`, half-maximal inhibition in assay [1] (IC50) required 0.657 µM. Further, in assay [2], the inhibition entry was “Active”.
On to `COCCOCCOCCNCNc1cc(O)c2c(c1)/C=C/C[C@H](O)[C@H](O)C(=O)/C=C\[C@@H](C)[C@H](C)OC2=O`, for which the concentration for half-maximal inhibition (IC50) in assay [1] was 0.756 µM. Also, in assay [2], the inhibition entry was “Active”.
In turn, `C[C@@H]1/C=C\C(=O)[C@@H](O)[C@@H](O)C/C=C/c2cc(N3CCNC3=O)cc(O)c2C(=O)O[C@H]1C` registered an IC50 in assay [1] of 0.484 µM. Besides, in assay [2], the inhibition result is “Active”.
On to `CNc1cc(O)c2c(c1)/C=C/C[C@H](O)[C@@H](O)C(=O)/C=C/[C@@H](C)[C@H](C)OC2=O`, for which the inhibition entry in assay [2] was “Active”.
As for `C[C@@H]1/C=C\C(=O)[C@@H](O)[C@@H](O)C/C=C/c2cc(NCC(=O)O)cc(O)c2C(=O)O[C@H]1C`, in assay [1], half-maximal inhibition (IC50) required 0.366 µM. Further, the inhibition result in assay [2] is “Active”.
As for `C[C@@H]1/C=C\C(=O)[C@@H](O)[C@@H](O)C/C=C/c2cc(NCCN3CCN(C)CC3)cc(O)c2C(=O)O[C@H]1C`, the IC50 in assay [1] lay within 0.471 to 0.946 µM. Moreover, in assay [2], the inhibition result is “Active”.
In the same order, the values of `CCNc1cc(O)c2c(c1)C#CC[C@H](O)[C@H](O)C(=O)/C=C\[C@@H](C)[C@H](C)OC2=O` are 0.182 µM and “Active”.
`C[C@@H]1/C=C\C(=O)[C@@H](O)[C@@H](O)C/C=C/c2cc(NCC(N)=O)cc(O)c2C(=O)O[C@H]1C`: in assay [1], the IC50 lay within 0.099 to 0.31 µM. Moreover, the inhibition result in assay [2] was “Active”.
Consider `C[C@@H]1/C=C\C(=O)[C@@H](O)[C@@H](O)C/C=C/c2cc(NCC(=O)N(C)C)cc(O)c2C(=O)O[C@H]1C`, for which half-maximal inhibition in assay [1] (IC50) was put at 0.318 µM. The inhibition result in assay [2] was “Active”.
In assay [1], `C[C@@H]1/C=C\C(=O)[C@@H](O)[C@@H](O)C/C=C/c2cc(NCCN3CCOCC3)cc(O)c2C(=O)O[C@H]1C` yielded a half-maximal inhibitory concentration (IC50) of 0.091 to 0.101 µM. Further, the inhibition entry in assay [2] was “Active”.
